Test results: patent publication US20230391826A1, “COMPOSITIONS AND METHODS FOR TREATING DISEASES” (Sanford Burnham Prebys Medical Discovery Institute, priority 2020, published 2023)
Where two headings read alike, the source gives them in different places.

Legend:
EphA2 LBD = target: T1, EphA2 LBD (Homo sapiens, UniProt P29317); experiment: Isothermal titration calorimetry (ITC) with soluble EphA2 LBD; assay type: binding
T1 construct: made in house; host or cells: E. coli Origami 2(DE3)
Procedure: (FIG. 10A-10E) The EphA2 LBD was titrated at 200-250 μM into 10-12.5 μM of the indicated peptide.
For ITC, all peptides are dissolved in DMSO and both the EphA2 LBD and the peptides are diluted to obtain a final buffer containing 9.5 mM HEPES, pH 7.9, 95 mM NaCl, and 5% DMSO. The experiments are carried out at 296 K (23° C.) using an ITC200 calorimeter (Microcal). Two-microliter aliquots of a peptide solution are injected into the cell containing 205 μL EphA2 LBD. 200-400 μM peptides are titrated into 20-40 μM EphA2 LBD. Experimental data are analyzed using the Origin software package (Microcal). The integrated values for the reaction heats are normalized to the amount of injected peptide after blank subtraction.

AKT = experiment: Inhibition of AKT phosphorylation on S473 in PC3 cells; assay type: cell-based
Procedure: (FIG. 2A) Dose-response curves for EphA2 autophosphorylation on tyrosine 588 (pY588; purple) and for downstream inhibition of AKT phosphorylation (magenta). PC3 cells were treated for 15 min with different concentrations of the indicated peptides. […] The graphs show quantifications from multiple blots (averages ±SE; the number of experiments used to generate each curve is shown in Table 3). […] (FIG. 2B) Examples of immunoblots of lysates from PC3 cells treated with the indicated concentrations of representative ligands. […] A white vertical line indicates removal of irrelevant lanes. […] The bars show averages ±SE, and the individual measurements are shown as black dots. […] Plots of Etop versus EC50 for pY588 in FIG. 2D and for pAKT inh in FIG. 2E. Averages ±SE are shown for the peptides and ephrinA1.

EphA2 = EphA2 (Homo sapiens, UniProt P29317); experiment: Quantitative FRET of EphA2 oligomerization in transiently transfected HEK293 cells; assay type: cell-based; parameters: expressed in transfected cells; host or cells: HEK293 (HEK293T), transient transfection
Chain of EphA2 (P29317 24-976): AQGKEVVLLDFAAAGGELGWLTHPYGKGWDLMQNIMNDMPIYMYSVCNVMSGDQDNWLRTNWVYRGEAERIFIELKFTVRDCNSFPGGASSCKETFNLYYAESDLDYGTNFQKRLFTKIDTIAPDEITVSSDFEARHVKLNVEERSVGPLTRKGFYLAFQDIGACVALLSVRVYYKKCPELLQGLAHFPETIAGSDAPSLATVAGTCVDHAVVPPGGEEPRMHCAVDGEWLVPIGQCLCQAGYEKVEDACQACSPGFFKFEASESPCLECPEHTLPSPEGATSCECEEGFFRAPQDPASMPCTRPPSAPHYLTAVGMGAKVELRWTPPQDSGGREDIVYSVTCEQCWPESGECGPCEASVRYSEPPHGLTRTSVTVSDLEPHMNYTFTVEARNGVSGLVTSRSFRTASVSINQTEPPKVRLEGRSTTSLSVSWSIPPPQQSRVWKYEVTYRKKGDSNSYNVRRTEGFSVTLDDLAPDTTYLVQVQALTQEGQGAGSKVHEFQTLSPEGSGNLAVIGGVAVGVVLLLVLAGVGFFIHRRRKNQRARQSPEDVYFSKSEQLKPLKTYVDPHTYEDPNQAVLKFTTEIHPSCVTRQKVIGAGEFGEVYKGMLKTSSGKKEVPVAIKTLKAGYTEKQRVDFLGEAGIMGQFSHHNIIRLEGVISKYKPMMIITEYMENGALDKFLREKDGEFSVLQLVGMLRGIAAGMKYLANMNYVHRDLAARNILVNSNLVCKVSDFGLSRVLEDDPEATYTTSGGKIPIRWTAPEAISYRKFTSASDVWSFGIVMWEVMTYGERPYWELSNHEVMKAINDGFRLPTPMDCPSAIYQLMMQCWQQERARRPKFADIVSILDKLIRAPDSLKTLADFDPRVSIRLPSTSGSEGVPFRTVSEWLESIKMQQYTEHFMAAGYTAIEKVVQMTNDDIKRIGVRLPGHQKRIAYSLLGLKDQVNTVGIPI
Description: FIG. 4A-4E illustrates an example where dimers with different configurations induce EphA2 oligomerization and patching on the cell surface. (FIG. 4A-4D) Oligomerization curves comparing EphA2 WT and the G131Y and L223R/L254R/[…] interface mutants transiently expressed in HEK293 cells and treated with saturating concentrations of C-terminally linked dimer (2) or N-terminally linked dimer (5). The curves were obtained by fitting quantitative FRET data to monomer-oligomer models. […] Curves for higher order oligomerization are steeper than dimerization curves. (FIG. 4E) Two-photon integrated fluorescence images of HEK293 cells expressing EphA2-EYFP and EphA2-mTURQ and under hypo-osmotic conditions. The plasma membrane regions in the rectangular yellow outlines are enlarged in the insets at the bottom of each panel. […]
To examine the effects of dimeric peptide ligands on EphA2 oligomerization (including dimerization and higher order clustering), quantitative FRET experiments were performed in live cells. […] FRET is then measured in hundreds of individual cells with different EphA2 expression levels (FIG. 12), and the data are combined to yield average oligomeric fractions at different EphA2 concentrations (FIG. 4A-4D). […]
To obtain the data points for oligomerization curves (FIG. 12), the concentration of EphA2 in each small region of plasma membrane in which FRET efficiency was measured. […]

other Eph receptors = experiment: ELISA selectivity: ephrinA5-AP binding to EphA receptors and ephrinB2-AP binding to EphB receptors; conditions: peptide at ~100-fold its IC50
Description: FIG. 1A-1C illustrates an example of Potency and selectivity of EphA2-targeting dimeric peptides. (FIG. 1A) ELISAs comparing the ability of the peptides to inhibit binding of ephrin-A5 fused to alkaline phosphatase (ephrinA5-AP) to the immobilized EphA2 extracellular domain fused to the Fc portion of an antibody (EphA2-Fc). The graphs show averages ±SD from triplicate measurements from a representative experiment. IC50 values calculated from the fitted curves in each experiment are shown. Averages of IC50 values obtained from multiple experiments are shown in panel FIG. 1B and Table 3. The 10 nM peptide concentration is outlined in red. (FIG. 1B) Plot of the average IC50 values (listed in Table 3) for different ligands. […] (FIG. 1C) EphrinA5-AP binding to EphA receptors and ephrinB2-AP binding to EphB receptors in the presence of dimeric peptides representing each of the three configurations. Values are normalized to ephrin binding without peptide. The graphs show averages and SDs from triplicate measurements (with each measurement shown as a dot).
An important feature of the original YSA peptide and its monomeric derivatives is that they specifically bind to EphA2, whereas the ephrinA ligands promiscuously binds to all EphA receptors (9, 31, 37, 53). […]

T1 sequence (P29317 28-200): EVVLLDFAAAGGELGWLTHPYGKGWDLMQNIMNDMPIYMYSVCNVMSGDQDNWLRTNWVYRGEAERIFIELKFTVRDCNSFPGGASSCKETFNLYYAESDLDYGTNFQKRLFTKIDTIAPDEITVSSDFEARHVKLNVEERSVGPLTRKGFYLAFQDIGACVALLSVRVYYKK

CC(C)C[C@H](NC(=O)[C@H](Cc1c[nH]c2ccccc12)NC(=O)[C@H](C)NC(=O)CNC(=O)[C@@H](N)CSSC[C@H](N)C(=O)NCC(=O)N[C@@H](C)C(=O)N[C@@H](Cc1c[nH]c2ccccc12)C(=O)N[C@@H](CC(C)C)C(=O)N[C@@H](C)C(=O)N[C@@H](Cc1ccc(O)cc1)C(=O)N1CCC[C@H]1C(=O)N[C@@H](CC(=O)O)C(=O)N[C@@H](CO)C(=O)N[C@H](C(=O)N1CCC[C@H]1C(=O)N[C@@H](Cc1ccc(O)cc1)C(=O)N[C@@H](CCCNC(=N)N)C(=O)N1CCC[C@H]1C(=O)N[C@@H](CCCCN)C(=O)O)C(C)C)C(=O)N[C@@H](C)C(=O)N[C@@H](Cc1ccc(O)cc1)C(=O)N1CCC[C@H]1C(=O)N[C@@H](CC(=O)O)C(=O)N[C@@H](CO)C(=O)N[C@H](C(=O)N1CCC[C@H]1C(=O)N[C@@H](Cc1ccc(O)cc1)C(=O)N[C@@H](CCCNC(=N)N)C(=O)N1CCC[C@H]1C(=O)N[C@@H](CCCCN)C(=O)O)C(C)C [compound 5, CGA-WLA-YRPK dimer (N-ter)]
Kd (EphA2 LBD): 380 ± 80 nM
N (binding stoichiometry by ITC) (EphA2 LBD; Table 3): N = 2.2 ± 0.2
Kd (EphA2 LBD; Table 3, soluble EphA2 LBD): 21 ± 3 nM
-TΔS (EphA2 LBD; Table 6): 21.93 ± 0.31 kcal/mol
N (EphA2 LBD; Table 6, binding stoichiometry): 2.2 ± 0.2
ΔG (EphA2 LBD; Table 6, change in Gibbs energy): -10.41 ± 0.10 kcal/mol
ΔH (EphA2 LBD; Table 6, change in enthalpy): -32.34 ± 0.21 kcal/mol
IC50 (AKT; PC3 cells): 0.068 ± 0.011 nM
EC50 (AKT; Table 3, PC3 cells treated for 15 min, read-out: ECsa pAKT inhlb.): 0.09 ± 0.02 nM
Etop pAKT inhlb (AKT; Table 3, PC3 cells, 15 min, 1-pAKT/AKT normalized to cells not treated with ligand): 1.0 ± 0.04
best-fit FRET oligomerization model, EphA2 WT (EphA2; saturating peptide, HEK293 cells): higher order oligomer model
EphA2 patches on the plasma membrane, EphA2 WT (EphA2; swollen HEK293 cells): formation of fluorescent patches
selectivity for EphA2 / binding to other Eph receptors (other Eph receptors): do not bind to other Eph receptors
